{"source": "patent US9827198B2", "about": "“Pharmaceutical dosage forms comprising sodium-1-[6-(morpholin-4-yl)pyrimidin-4-yl]-4-(1H-1,2,3-triazol-1-yl)-1H-pyrazol-5-olate” (Bayer Pharma Aktiengesellschaft, priority 2013, dated 2017)", "assay_type_in_all_cases": "physicochemical", "key": {"[1]": {"test": "Solubility of active ingredient salts in water"}, "[2]": {"test": "Stability with respect to uptake or release of water under varying atmospheric humidity", "conditions": "varying conditions of atmospheric humidity; compared with compound of the formula (II)"}, "[3]": {"test": "Effect of light on active ingredient (I) or tablet cores", "conditions": "active ingredient (I) or the tablet cores"}, "[4]": {"test": "Compatibility with polyethylene glycol used in the film coating", "conditions": "at high active ingredient concentrations"}}, "note": "Structures can show the parent of a compound that is named as a salt.", "data": [{"smiles": "[Al+3].[O-]c1c(-n2ccnn2)cnn1-c1cc(N2CCOCC2)ncn1.[O-]c1c(-n2ccnn2)cnn1-c1cc(N2CCOCC2)ncn1.[O-]c1c(-n2ccnn2)cnn1-c1cc(N2CCOCC2)ncn1", "note": "[Aluminium salt]", "values": [{"measurement": "Solubility in water at 25° C.", "setting": "[1]", "result": 6, "unit": "mg/100 mL"}]}, {"smiles": "Oc1c(-n2ccnn2)cnn1-c1cc(N2CCOCC2)ncn1", "note": "[Sodium salt (active ingredient (I)), sodium 1-[6-(morpholin-4-yl)pyrimidin-4-yl]-4-(1H-1,2,3-triazol-1-yl)-1H-pyrazol-5-olate]", "values": [{"measurement": "solubility", "setting": "[1]; 25° C.", "result": 26.2, "unit": "mg/mL"}, {"measurement": "Stability with respect to uptake or release of water", "setting": "[2]", "result": "significantly higher stability with respect to uptake or release of water"}, {"measurement": "Effect of light", "setting": "[3]", "result": "brown discolouration"}, {"measurement": "Compatibility with polyethylene glycol used in the film coating", "setting": "[4]", "result": "physical incompatibility with polyethylene glycol"}]}]}
